Reference: US8658000B2, “Preparation method of apigenin and dehydrosilybin mixture using radiation” (Korea Atomic Energy Research Institute, priority 2011, dated 2014)

What was measured:
[1] = system: colon carcinoma cell line (SW620); assay: EZ-Cytox cell viability assay, colon carcinoma cell line (SW620); format: cell-based; conditions: Homo sapiens, SW-620; SW620, 50 μg/mL, 24 h, non-treated = 100
[2] = system: lung carcinoma cell line (A549); assay: EZ-Cytox cell viability assay, lung carcinoma cell line (A549); format: cell-based; conditions: Homo sapiens; A549, 50 μg/mL, 24 h, non-treated = 100
[3] = system: lung carcinoma cell line (H460); assay: EZ-Cytox cell viability assay, lung carcinoma cell line (H460); format: cell-based; conditions: Homo sapiens, NCI-H460; H460, 50 μg/mL, 24 h, non-treated = 100
Description: (§1) To investigate the cancer cell inhibitory effect of the compounds of formulae 1 and 2 obtained by the preparation method according to the present invention, experiment was conducted. EZ-Cytox cell viability assay kit (Daeil Lab, Korea) was used to measure cancer cell growth inhibitory activity, and prostate carcinoma cell line (DU145), cervical carcinoma cell line (Hela), colon carcinoma cell line (SW480), and lung carcinoma cell line (H460) were used for cancer cells. All the cancer cells were incubated in 96-well plate at concentration of 5×10^4 cells/mL. After 24 h, dehydrosilybin compound of formula 1 and apigenin compound of formula 2 according to the present invention, and starting substance (i.e., silybin) as a control were treated at concentration of 50 μg/mL. After culturing at 37° C., 5% carbon dioxide environment, 24 h, 10 μL of kit solution was treated in each well. After 3 h of additional culturing, the optical absorbance was measured at 480 nm. The result is listed in Tables 3 to 6 and illustrated in FIGS. 2 to 7.

[4] = system: cervical carcinoma cell line (Hela); assay: EZ-Cytox cell viability assay, cervical carcinoma cell line (Hela); format: cell-based; conditions: Homo sapiens, 50 μg/mL, 24 h, non-treated = 100
Description: as §1

[5] = system: colon carcinoma cell line (SW480); assay: EZ-Cytox cell viability assay, colon carcinoma cell line (SW480); format: cell-based; conditions: Homo sapiens; SW480, 50 μg/mL, 24 h, non-treated = 100
Description: as §1

[6] = system: prostate carcinoma cell line (DU145); assay: EZ-Cytox cell viability assay, prostate carcinoma cell line (DU145); format: cell-based; conditions: Homo sapiens, DU-145; DU145, 50 μg/mL, 24 h, non-treated = 100
Description: as §1

various cancers = conditions: background statement; cited from earlier work

Row | SMILES | viability at 50 µg/mL [1] | viability at 50 µg/mL [2] | viability at 50 µg/mL [3] | viability at 50 µg/mL [4] | viability at 50 µg/mL [5] | viability at 50 µg/mL [6] | concentration at which apigenin can effectively act (anticancer activity) (various cancers)
1 | COc1cc(C2Oc3cc(-c4oc5cc(O)cc(O)c5c(=O)c4O)ccc3OC2CO)ccc1O (stereo not shown) [Compound of formula 1] | 27.8% | 58.9% | 66.3% | 21.1% | 41.7% | 40.4% | 
2 | O=c1cc(-c2ccc(O)cc2)oc2cc(O)cc(O)c12 [Compound of formula 2, 5,7-dihydroxy-2-(4-hydroxyphenyl)-4H-chroman-4-one] | 39.4% | 72.1% | 97.4% | 38.7% | 49.2% | 51.6% | < 50 µM
